Measurements taken from US20250092039A1, “GLUTARIMIDE-CONTAINING PAN-KRAS-MUTANT DEGRADER COMPOUNDS AND USES THEREOF” (Tiger Biotherapeutics Inc., priority 2022, published 2025).
Like-named read-outs stand apart in the source and are kept apart here.

Key:
KRAS G12V = KRAS G12V (Homo sapiens (Human), UniProt P01116, G12V); experiment: KRAS G12V degradation in SW620 cells (Western blot, DC50); assay type: cell-based; details: 24 hours
Procedure, shortened: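 KRAS levels were quantified by fluorescent Western blot as percent of the DMSO control after 24 h of compound exposure at 37° C in homozygous KRAS G12V SW620 cells. A four-parameter variable-slope fit of the dose-response gave the half-maximal degradation concentration.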

KRAS-G12V/RAF1 = KRAS-G12V/RAF1 (Homo sapiens (Human), UniProt P01116, G12V); experiment: KRAS/RAF1 binding inhibition assay (AlphaScreen)
Procedure, shortened: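 IC50 comes from variable-slope nonlinear fits of % inhibition (relative to DMSO) against inhibitor concentration. The AlphaScreen signal tracks the interaction of GppNHp-bound KRAS G12V with the RAF1 RBD after 60 min at 4° C with compound in 2% DMSO final.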

SW620 cells = experiment: 3D cell growth inhibition of SW620 cells carrying endogenous KRAS G12V mutation (CellTiter-Glo 3D, GI50); assay type: cell-based; details: Homo sapiens, SW-620, 144 h, read-out: SW620 3D cell growth GI50
Method: The following day, the test compound was administered to the cells by using 1000× compound stock solution prepared in DMSO at various concentrations. 1000× compound stock solution was first diluted in culturing medium to 10×, then 10 μL compound medium was added to each well in the cell plates. After administration of the compound, the cells were then incubated at 37° C. for 6 days. Upon completion, the plates were equilibrated at room temperature for approximately 10 minutes. 100 μL of CellTiter-Glo® 3D Reagent (Promega) was added to each well. The plates were then incubated at room temperature for 30 minutes and luminescence was recorded by EnSpire plate reader (PerkinElmer).

KRAS-G12V/RAF1, sequence (P01116-2 other isoform, or with tags, fused parts or gaps G12V): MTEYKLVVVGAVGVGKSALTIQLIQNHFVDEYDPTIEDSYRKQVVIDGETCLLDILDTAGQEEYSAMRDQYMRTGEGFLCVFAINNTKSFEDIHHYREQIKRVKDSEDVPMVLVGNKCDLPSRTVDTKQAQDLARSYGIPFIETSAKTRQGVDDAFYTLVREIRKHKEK
KRAS G12V, sequence (P01116-2 other isoform, or with tags, fused parts or gaps G12V): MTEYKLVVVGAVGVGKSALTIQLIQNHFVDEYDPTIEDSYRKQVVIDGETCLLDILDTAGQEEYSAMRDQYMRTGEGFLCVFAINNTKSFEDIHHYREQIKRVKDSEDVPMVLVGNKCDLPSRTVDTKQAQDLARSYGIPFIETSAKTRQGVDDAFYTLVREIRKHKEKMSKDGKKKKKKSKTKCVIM

## CCc1c(F)ccc2cc(O)cc(-c3ncc4c(N5CCOCC(C)(O)C5)nc(OCC5(CN6CCC7(CC6)CC(CN6CCN(c8ccc9c(c8)CN([C@H]8CCC(=O)NC8=O)C9=O)CC6)C7)CC5)nc4c3F)c12 (mixture of isomers) [Compound 91, (3S)-3-(5-(4-((7-((1-(((7-(8-ethyl-7-fluoro-3-hydroxynaphthalen-1-yl)-8-fluoro-4-(6-hydroxy-6-methyl-1,4-oxazepan-4-yl)pyrido[4,3-d]pyrimidin-2-yl)oxy)methyl)cyclopropyl)methyl)-7-azaspiro[3.5]nonan-2-yl)methyl)piperazin-1-yl)-1-oxoisoindolin-2-yl)piperidine-2,6-dione]
KRAS G12V
  DC50: 1 to 10 nM
KRAS-G12V/RAF1
  IC50: 20 to 200 nM
SW620 cells
  GI50: < 10 nM

## CCc1c(F)ccc2cc(O)cc(-c3ncc4c(N5CCC[C@@](C)(O)C5)nc(OCC5(CN6CCC7(CC6)CC(C6CCN(c8ccc9c(c8)CN(C8CCC(=O)NC8=O)C9=O)CC6)C7)CC5)nc4c3F)c12 (stereo partly drawn) [Compound 186, 3-(5-(4-(7-((1-(((7-(8-ethyl-7-fluoro-3-hydroxynaphthalen-1-yl)-8-fluoro-4-((R)-3-hydroxy-3-methylpiperidin-1-yl)pyrido[4,3-d]pyrimidin-2-yl)oxy)methyl)cyclopropyl)methyl)-7-azaspiro[3.5]nonan-2-yl)piperidin-1-yl)-1-oxoisoindolin-2-yl)piperidine-2,6-dione]
KRAS G12V
  DC50: < 1 nM
KRAS-G12V/RAF1
  IC50: > 200 nM
SW620 cells; SW620 cells, 6 days
  GI50: < 10 nM

## CCc1c(F)ccc2cc(O)cc(-c3ncc4c(N5CCC[C@@](C)(O)C5)nc(OCC5(CN6CCC(C)(CN7CCN(c8ccc9c(c8)CN([C@@H]8CCC(=O)NC8=O)C9=O)CC7)CC6)CC5)nc4c3F)c12 [Compound 63, (R)-3-(5-(4-((1-((1-(((7-(8-ethyl-7-fluoro-3-hydroxynaphthalen-1-yl)-8-fluoro-4-((R)-3-hydroxy-3-methylpiperidin-1-yl)pyrido[4,3-d]pyrimidin-2-yl)oxy)methyl)cyclopropyl)methyl)-4-methylpiperidin-4-yl)methyl)piperazin-1-yl)-1-oxoisoindolin-2-yl)piperidine-2,6-dione]
KRAS G12V
  DC50: 1 to 10 nM
KRAS-G12V/RAF1
  IC50: 20 to 200 nM
SW620 cells; SW620 cells, 6 days
  GI50: < 10 nM

## CCc1cccc2cc(O)cc(-c3ncc4c(N5CCC[C@@](C)(O)C5)nc(OCC5(CN6CCC7(CC6)CC(N6CCN(c8ccc9c(c8)C(=O)N(C8CCC(=O)NC8=O)C9=O)CC6)C7)CC5)nc4c3F)c12 (stereo partly drawn) [Compound 31, 2-(2,6-dioxopiperidin-3-yl)-5-(4-(7-((1-(((7-(8-ethyl-3-hydroxynaphthalen-1-yl)-8-fluoro-4-((R)-3-hydroxy-3-methylpiperidin-1-yl)pyrido[4,3-d]pyrimidin-2-yl)oxy)methyl)cyclopropyl)methyl)-7-azaspiro[3.5]nonan-2-yl)piperazin-1-yl)isoindoline-1,3-dione]
KRAS G12V
  DC50: 1 to 10 nM
KRAS-G12V/RAF1
  IC50: 20 to 200 nM
SW620 cells; SW620 cells, 6 days
  GI50: < 10 nM

## CCc1c(F)ccc2cc(O)cc(-c3ncc4c(N5CCC[C@@](C)(O)C5)nc(OCC5(CN6CCC(N7CCC8(CCN(c9ccc%10c(c9)CN(C9CCC(=O)NC9=O)C%10=O)CC8)CC7)CC6)CC5)nc4c3F)c12 (stereo partly drawn) [Compound 145, 3-(5-(9-(1-((1-(((7-(8-ethyl-7-fluoro-3-hydroxynaphthalen-1-yl)-8-fluoro-4-((R)-3-hydroxy-3-methylpiperidin-1-yl)pyrido[4,3-d]pyrimidin-2-yl)oxy)methyl)cyclopropyl)methyl)piperidin-4-yl)-3,9-diazaspiro[5.5]undecan-3-yl)-1-oxoisoindolin-2-yl)piperidine-2,6-dione]
KRAS G12V
  DC50: 1 to 10 nM
KRAS-G12V/RAF1
  IC50: < 20 nM
SW620 cells; SW620 cells, 6 days
  GI50: < 10 nM

## CCc1c(F)ccc2cc(O)cc(-c3ncc4c(N5CCC[C@@](C)(O)C5)nc(OCC5(CN6CCC7(CC6)CN(C6CN(c8ccc9c(c8)CN(C8CCC(=O)NC8=O)C9=O)C6)C7)CC5)nc4c3F)c12 (stereo partly drawn) [Compound 163, 3-[5-[3-[7-[[1-[[7-(8-ethyl-7-fluoro-3-hydroxy-1-naphthyl)-8-fluoro-4-[(3R)-3-hydroxy-3-methyl-1-piperidyl]pyrido[4,3-d]pyrimidin-2-yl]oxymethyl]cyclopropyl]methyl]-2,7-diazaspiro[3.5]nonan-2-yl]azetidin-1-yl]-1-oxo-isoindolin-2-yl]piperidine-2,6-dione]
KRAS G12V
  DC50: < 1 nM
KRAS-G12V/RAF1
  IC50: < 20 nM
SW620 cells; SW620 cells, 6 days
  GI50: < 10 nM

## CCc1c(F)ccc2cc(O)cc(-c3ncc4c(N5CCC[C@@](C)(O)C5)nc(OCC5(CN6CC7(CCC(CN8CCN(c9ccc%10c(c9)CN([C@H]9CCC(=O)NC9=O)C%10=O)CC8)CC7)C6)CC5)nc4c3F)c12 [Compound 126, (3S)-3-[5-[4-[[2-[[1-[[7-(8-ethyl-7-fluoro-3-hydroxy-1-naphthyl)-8-fluoro-4-[(3R)-3-hydroxy-3-methyl-1-piperidyl]pyrido[4,3-d]pyrimidin-2-yl]oxymethyl]cyclopropyl]methyl]-2-azaspiro[3.5]nonan-7-yl]methyl]piperazin-1-yl]-1-oxo-isoindolin-2-yl]piperidine-2,6-dione]
KRAS G12V
  DC50: 1 to 10 nM
KRAS-G12V/RAF1
  IC50: 20 to 200 nM
SW620 cells; SW620 cells, 6 days
  GI50: < 10 nM

## C#Cc1c(F)ccc2cc(N)cc(-c3ncc4c(N5CCC[C@@](C)(O)C5)nc(OCC5(CN6CCC7(CC6)CC(CN6CCN(c8ccc9c(c8)CN([C@H]8CCC(=O)NC8=O)C9=O)CC6)C7)CC5)nc4c3F)c12 [Compound 119, (S)-3-(5-(4-((7-((1-(((7-(3-amino-8-ethynyl-7-fluoronaphthalen-1-yl)-8-fluoro-4-((R)-3-hydroxy-3-methylpiperidin-1-yl)pyrido[4,3-d]pyrimidin-2-yl)oxy)methyl)cyclopropyl)methyl)-7-azaspiro[3.5]nonan-2-yl)methyl)piperazin-1-yl)-1-oxoisoindolin-2-yl)piperidine-2,6-dione]
KRAS G12V
  DC50: > 100 nM
KRAS-G12V/RAF1
  IC50: > 200 nM
SW620 cells; SW620 cells, 6 days
  GI50: > 100 nM

## CCc1cccc2cc(O)cc(-c3ncc4c(N5CCCOCC5)nc(OCC5(CN6CCC7(CC6)CC(CN6CCN(c8ccc9c(c8)CN([C@H]8CCC(=O)NC8=O)C9=O)CC6)C7)CC5)nc4c3F)c12 [Compound 109, (S)-3-(5-(4-((7-((1-(((7-(8-ethyl-3-hydroxynaphthalen-1-yl)-8-fluoro-4-(1,4-oxazepan-4-yl)pyrido[4,3-d]pyrimidin-2-yl)oxy)methyl)cyclopropyl)methyl)-7-azaspiro[3.5]nonan-2-yl)methyl)piperazin-1-yl)-1-oxoisoindolin-2-yl)piperidine-2,6-dione]
KRAS G12V
  DC50: > 100 nM
KRAS-G12V/RAF1
  IC50: > 200 nM
SW620 cells; SW620 cells, 6 days
  GI50: > 100 nM

## CCc1cccc2cc(O)cc(-c3ncc4c(N5CCC[C@@](C)(O)C5)nc(OCC5(CN6CC[C@H](CN7CC8(CCN(c9ccc%10c(c9)CN(C9CCC(=O)NC9=O)C%10=O)CC8)C7)C6)CC5)nc4c3F)c12 (stereo partly drawn) [Compound 22, 3-(5-(2-(((S)-1-((1-(((7-(8-ethyl-3-hydroxynaphthalen-1-yl)-8-fluoro-4-((R)-3-hydroxy-3-methylpiperidin-1-yl)pyrido[4,3-d]pyrimidin-2-yl)oxy)methyl)cyclopropyl)methyl)pyrrolidin-3-yl)methyl)-2,7-diazaspiro[3.5]nonan-7-yl)-1-oxoisoindolin-2-yl)piperidine-2,6-dione]
KRAS G12V
  DC50: > 100 nM
KRAS-G12V/RAF1
  IC50: < 20 nM
SW620 cells; SW620 cells, 6 days
  GI50: 10 to 100 nM

## CCc1cccc2cc(O)cc(-c3ncc4c(N5CCC[C@@](C)(O)C5)nc(OCC5(CN6CC[C@@H](CN7CC8(CCN(c9ccc%10c(c9)CN(C9CCC(=O)NC9=O)C%10=O)CC8)C7)C6)CC5)nc4c3F)c12 (stereo partly drawn) [Compound 18, 3-(5-(2-(((R)-1-((1-(((7-(8-ethyl-3-hydroxynaphthalen-1-yl)-8-fluoro-4-((R)-3-hydroxy-3-methylpiperidin-1-yl)pyrido[4,3-d]pyrimidin-2-yl)oxy)methyl)cyclopropyl)methyl)pyrrolidin-3-yl)methyl)-2,7-diazaspiro[3.5]nonan-7-yl)-1-oxoisoindolin-2-yl)piperidine-2,6-dione]
KRAS G12V
  DC50: > 100 nM
KRAS-G12V/RAF1
  IC50: < 20 nM
SW620 cells; SW620 cells, 6 days
  GI50: 10 to 100 nM

## C[C@@]1(O)CCCN(c2nc(OCC3(CN4CCC5(CC4)CC(CN4CCN(c6ccc7c(c6)CN([C@H]6CCC(=O)NC6=O)C7=O)CC4)C5)CC3)nc3c(F)c(-c4cc(N)cc(Cl)c4C(F)(F)F)ncc23)C1 [Compound 135, (S)-3-(5-(4-((7-((1-(((7-(5-amino-3-chloro-2-(trifluoromethyl)phenyl)-8-fluoro-4-((R)-3-hydroxy-3-methylpiperidin-1-yl)pyrido[4,3-d]pyrimidin-2-yl)oxy)methyl)cyclopropyl)methyl)-7-azaspiro[3.5]nonan-2-yl)methyl)piperazin-1-yl)-1-oxoisoindolin-2-yl)piperidine-2,6-dione]
KRAS G12V
  DC50: 1 to 10 nM
KRAS-G12V/RAF1
  IC50: 20 to 200 nM
SW620 cells; SW620 cells, 6 days
  GI50: < 10 nM

## CCc1c(F)ccc2cc(O)cc(-c3ncc4c(N5CCC[C@@](C)(O)C5)nc(OCC5(CN6CC7(CC(CN8CCN(c9ccc%10c(c9)CN([C@@H]9CCC(=O)NC9=O)C%10=O)CC8)C7)C6)CC5)nc4c3F)c12 [Compound 11, (R)-3-(5-(4-((2-((1-(((7-(8-ethyl-7-fluoro-3-hydroxynaphthalen-1-yl)-8-fluoro-4-((R)-3-hydroxy-3-methylpiperidin-1-yl)pyrido[4,3-d]pyrimidin-2-yl)oxy)methyl)cyclopropyl)methyl)-2-azaspiro[3.3]heptan-6-yl)methyl)piperazin-1-yl)-1-oxoisoindolin-2-yl)piperidine-2,6-dione]
KRAS G12V
  DC50: 1 to 10 nM
KRAS-G12V/RAF1
  IC50: < 20 nM
SW620 cells; SW620 cells, 6 days
  GI50: 10 to 100 nM
